Assay results reported in PubChem BioAssay AID212 (DTP/NCI, 2004).
Several values for one entry are separate records, joined by “and”; a condition that tells them apart may be missing. Equal entries are not always repeated. Records with an inconclusive call do not appear.

Tested on: BDF1 mice, colon carcinoma 38 sc, T/C %
Assay: NCI In Vivo Anticancer Drug Screen. Data for tumor model Colon Carcinoma 38 (subcutaneous) in B6D2F1 (BDF1) mice
Summary of the method: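 Transplantable tumor in mice; compound-treated vs vehicle-dosed controls. Measured survival or tumor size; value = T ÷ C.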

[1] = endpoint: median tumor weight (est.), dose: 200.0 mg/kg/injection, schedule: Q07DX002 (ip), vehicle: saline, higher = larger tumour
[2] = endpoint: median tumor weight (est.), dose: 400.0 mg/kg/injection, schedule: Q07DX002 (ip), vehicle: saline, higher = larger tumour
[3] = endpoint: median tumor weight (est.), dose: 25.0 mg/kg/injection, schedule: Q07DX002 (ip), vehicle: saline, higher = larger tumour
[4] = endpoint: median tumor weight (est.), dose: 100.0 mg/kg/injection, schedule: Q07DX002 (ip), vehicle: saline, higher = larger tumour
[5] = endpoint: median tumor weight (est.), dose: 12.5 mg/kg/injection, schedule: Q07DX002 (ip), vehicle: saline with Tween-80, higher = larger tumour
[6] = endpoint: median tumor weight (est.), dose: 25.0 mg/kg/injection, schedule: Q07DX002 (ip), vehicle: saline with Tween-80, higher = larger tumour
[7] = endpoint: median tumor weight (est.), dose: 50.0 mg/kg/injection, schedule: Q07DX002 (ip), vehicle: saline with Tween-80, higher = larger tumour
[8] = endpoint: median tumor weight (est.), dose: 200.0 mg/kg/injection, schedule: Q07DX002 (ip), vehicle: saline with Tween-80, higher = larger tumour
[9] = endpoint: median tumor weight (est.), dose: 100.0 mg/kg/injection, schedule: Q07DX002 (ip), vehicle: saline with Tween-80, higher = larger tumour

## Nc1nc([Se])c2ncn(C3OC(CO)C(O)C3O)c2n1 (configuration not stated)
endpoint: median tumor weight (est.), dose: 4.0 mg/kg/injection, schedule: Q07DX002 (ip), vehicle: saline, higher = larger tumour
  T/C: 23 % of control
endpoint: median tumor weight (est.), dose: 4.0 mg/kg/injection, schedule: Q07DX002 (ip), vehicle: suspension in saline, higher = larger tumour
  T/C: 124 % of control
endpoint: median tumor weight (est.), dose: 4.0 mg/kg/injection, schedule: Q07DX003 (ip), vehicle: saline, higher = larger tumour
  T/C: 170 % of control
endpoint: median tumor weight (est.), dose: 8.0 mg/kg/injection, schedule: Q07DX002 (ip), vehicle: saline, higher = larger tumour
  T/C: 14 % of control
endpoint: median tumor weight (est.), dose: 8.0 mg/kg/injection, schedule: Q07DX002 (ip), vehicle: suspension in saline, higher = larger tumour
  T/C: 112 % of control and 94 % of control
endpoint: median tumor weight (est.), dose: 8.0 mg/kg/injection, schedule: Q07DX003 (ip), vehicle: saline, higher = larger tumour
  T/C: 93 % of control
endpoint: median tumor weight (est.), dose: 16.0 mg/kg/injection, schedule: Q07DX002 (ip), vehicle: saline, higher = larger tumour
  T/C: 20 % of control
endpoint: median tumor weight (est.), dose: 16.0 mg/kg/injection, schedule: Q07DX002 (ip), vehicle: suspension in saline, higher = larger tumour
  T/C: 83 % of control and 86 % of control
endpoint: median tumor weight (est.), dose: 16.0 mg/kg/injection, schedule: Q07DX003 (ip), vehicle: saline, higher = larger tumour
  T/C: 113 % of control
endpoint: median tumor weight (est.), dose: 32.0 mg/kg/injection, schedule: Q07DX002 (ip), vehicle: saline, higher = larger tumour
  T/C: 18 % of control
endpoint: median tumor weight (est.), dose: 32.0 mg/kg/injection, schedule: Q07DX003 (ip), vehicle: saline, higher = larger tumour
  T/C: 92 % of control
endpoint: median tumor weight (est.), dose: 64.0 mg/kg/injection, schedule: Q07DX002 (ip), vehicle: saline, higher = larger tumour
  T/C: 20 % of control
endpoint: median tumor weight (est.), dose: 64.0 mg/kg/injection, schedule: Q07DX002 (ip), vehicle: suspension in saline, higher = larger tumour
  T/C: 71 % of control and 92 % of control
endpoint: median tumor weight (est.), dose: 64.0 mg/kg/injection, schedule: Q07DX003 (ip), vehicle: saline, higher = larger tumour
  T/C: 41 % of control

## CNC=O
[1]
  T/C: 110 % of control
[2]
  T/C: 150 % of control
endpoint: median tumor weight (est.), dose: 800.0 mg/kg/injection, schedule: Q07DX002 (ip), vehicle: saline, higher = larger tumour
  T/C: 55 % of control
endpoint: median tumor weight (est.), dose: 1600.0 mg/kg/injection, schedule: Q07DX002 (ip), vehicle: saline, higher = larger tumour
  T/C: 75 % of control

## C1CC[N-]CC1.C1CC[N-]CC1.C1CC[N-]CC1.[Cl][Rh]([Cl])[Cl]
[3]
  T/C: 105 % of control
[4]
  T/C: 120 % of control and 124 % of control
[1]
  T/C: 92 % of control

## OCC1(CO)COC2(CCCCC2)N1
[4]
  T/C: 118 % of control and 102 % of control
[2]
  T/C: 112 % of control and 122 % of control

## CC(C)(C)C1CCCCC1
endpoint: median tumor weight (est.), dose: 12.5 mg/kg/injection, schedule: Q07DX002 (ip), vehicle: Klucel (hydroxypropylcellulose) (HPC), higher = larger tumour
  T/C: 100 % of control
endpoint: median tumor weight (est.), dose: 25.0 mg/kg/injection, schedule: Q07DX002 (ip), vehicle: Klucel (hydroxypropylcellulose) (HPC), higher = larger tumour
  T/C: 124 % of control
endpoint: median tumor weight (est.), dose: 100.0 mg/kg/injection, schedule: Q07DX002 (ip), vehicle: Klucel (hydroxypropylcellulose) (HPC), higher = larger tumour
  T/C: 104 % of control
endpoint: median tumor weight (est.), dose: 200.0 mg/kg/injection, schedule: Q07DX002 (ip), vehicle: Klucel (hydroxypropylcellulose) (HPC), higher = larger tumour
  T/C: 77 % of control

## CC(/C=N/N=C(N)N)=N\N=C(N)N
endpoint: median tumor weight (est.), dose: 6.25 mg/kg/injection, schedule: Q07DX003 (ip), vehicle: saline, higher = larger tumour
  T/C: 66 % of control
endpoint: median tumor weight (est.), dose: 12.5 mg/kg/injection, schedule: Q07DX003 (ip), vehicle: saline, higher = larger tumour
  T/C: 66 % of control
endpoint: median tumor weight (est.), dose: 25.0 mg/kg/injection, schedule: Q07DX003 (ip), vehicle: saline, higher = larger tumour
  T/C: 79 % of control
endpoint: median tumor weight (est.), dose: 100.0 mg/kg/injection, schedule: Q07DX003 (ip), vehicle: saline, higher = larger tumour
  T/C: 115 % of control

## C/C=C/c1cc2c(c(=O)o1)C(=O)[C@@H](O)[C@H](C)O2
[5]
  T/C: 73 % of control and 95 % of control
[6]
  T/C: 61 % of control and 80 % of control
[7]
  T/C: 72 % of control and 76 % of control
[8]
  T/C: 71 % of control and 86 % of control

## CCN(CC)CCNc1ccc(CO)c2sc3ccccc3c(=O)c12
endpoint: median tumor weight (est.), dose: 6.25 mg/kg/injection, schedule: Q07DX003 (ip), vehicle: clinical formulation, higher = larger tumour
  T/C: 120 % of control
endpoint: median tumor weight (est.), dose: 6.25 mg/kg/injection, schedule: Q07DX003 (ip), vehicle: water, higher = larger tumour
  T/C: 90 % of control
endpoint: median tumor weight (est.), dose: 12.5 mg/kg/injection, schedule: Q07DX003 (ip), vehicle: clinical formulation, higher = larger tumour
  T/C: 116 % of control
endpoint: median tumor weight (est.), dose: 12.5 mg/kg/injection, schedule: Q07DX003 (ip), vehicle: water, higher = larger tumour
  T/C: 103 % of control
endpoint: median tumor weight (est.), dose: 25.0 mg/kg/injection, schedule: Q07DX003 (ip), vehicle: clinical formulation, higher = larger tumour
  T/C: 77 % of control
endpoint: median tumor weight (est.), dose: 25.0 mg/kg/injection, schedule: Q07DX003 (ip), vehicle: water, higher = larger tumour
  T/C: 114 % of control
endpoint: median tumor weight (est.), dose: 50.0 mg/kg/injection, schedule: Q07DX003 (ip), vehicle: clinical formulation, higher = larger tumour
  T/C: 63 % of control
endpoint: median tumor weight (est.), dose: 50.0 mg/kg/injection, schedule: Q07DX003 (ip), vehicle: water, higher = larger tumour
  T/C: 30 % of control
endpoint: median tumor weight (est.), dose: 100.0 mg/kg/injection, schedule: Q07DX003 (ip), vehicle: clinical formulation, higher = larger tumour
  T/C: 14 % of control
endpoint: median tumor weight (est.), dose: 100.0 mg/kg/injection, schedule: Q07DX003 (ip), vehicle: water, higher = larger tumour
  T/C: 11 % of control

## CN1C(=O)NC(c2ccc(Cl)cc2)(c2ccc(Cl)cc2)C1=O
endpoint: median tumor weight (est.), dose: 12.5 mg/kg/injection, schedule: Q07DX002 (ip), vehicle: distilled water + Tween-80, higher = larger tumour
  T/C: 95 % of control
endpoint: median tumor weight (est.), dose: 25.0 mg/kg/injection, schedule: Q07DX002 (ip), vehicle: distilled water + Tween-80, higher = larger tumour
  T/C: 105 % of control
endpoint: median tumor weight (est.), dose: 50.0 mg/kg/injection, schedule: Q07DX002 (ip), vehicle: distilled water + Tween-80, higher = larger tumour
  T/C: 51 % of control
endpoint: median tumor weight (est.), dose: 100.0 mg/kg/injection, schedule: Q07DX002 (ip), vehicle: distilled water + Tween-80, higher = larger tumour
  T/C: 97 % of control
endpoint: median tumor weight (est.), dose: 200.0 mg/kg/injection, schedule: Q07DX002 (ip), vehicle: distilled water + Tween-80, higher = larger tumour
  T/C: 52 % of control
endpoint: median tumor weight (est.), dose: 400.0 mg/kg/injection, schedule: Q07DX002 (ip), vehicle: distilled water + Tween-80, higher = larger tumour
  T/C: 58 % of control

## COC1=C(OC)C(=O)C(C/C=C(\C)CC/C=C(\C)CC/C=C(\C)CC/C=C(\C)CC/C=C(\C)CC/C=C(\C)CC/C=C(\C)CC/C=C(\C)CC/C=C(\C)CCC=C(C)C)=C(C)C1=O
[5]
  T/C: 202 % of control
[7]
  T/C: 86 % of control
[9]
  T/C: 83 % of control
[8]
  T/C: 121 % of control
endpoint: median tumor weight (est.), dose: 400.0 mg/kg/injection, schedule: Q07DX002 (ip), vehicle: saline with Tween-80, higher = larger tumour
  T/C: 110 % of control

## O=C1N=C(Oc2ccccc2)SC1=O
[5]
  T/C: 95 % of control
[6]
  T/C: 62 % of control and 80 % of control
[7]
  T/C: 53 % of control
[9]
  T/C: 88 % of control
[8]
  T/C: 118 % of control

## CSc1ccc2c(c1)C(N1CCN(C)CC1)Cc1ccccc1S2 (configuration not stated)
[7]
  T/C: 68 % of control and 72 % of control

## COc1cccc2c1C(=O)c1c(O)c3c(c(O)c1C2=O)CC(O)(C(=O)CO)CC3OC1CC(N)C(O)C(C)O1 (configuration not stated)
endpoint: median survival time, dose: 41.0 mg/kg/injection, schedule: Q07DX002 (iv), vehicle: saline, higher = longer survival
  T/C: 93 % of control
endpoint: median survival time, dose: 64.0 mg/kg/injection, schedule: Q07DX002 (iv), vehicle: saline, higher = longer survival
  T/C: 104 % of control
endpoint: median survival time, dose: 100.0 mg/kg/injection, schedule: Q07DX002 (iv), vehicle: saline, higher = longer survival
  T/C: 122 % of control
endpoint: median survival time, dose: 155.0 mg/kg/injection, schedule: Q07DX002 (iv), vehicle: saline, higher = longer survival
  T/C: 124 % of control
endpoint: median tumor weight (est.), dose: 6.25 mg/kg/injection, schedule: Q07DX002 (ip), vehicle: water, higher = larger tumour
  T/C: 110 % of control
endpoint: median tumor weight (est.), dose: 12.5 mg/kg/injection, schedule: Q07DX002 (ip), vehicle: water, higher = larger tumour
  T/C: 100 % of control
endpoint: median tumor weight (est.), dose: 20.25 mg/kg/injection, schedule: Q07DX002 (ip), vehicle: saline, higher = larger tumour
  T/C: 51 % of control
[3]
  T/C: 81 % of control and 86 % of control
endpoint: median tumor weight (est.), dose: 25.0 mg/kg/injection, schedule: Q07DX002 (ip), vehicle: water, higher = larger tumour
  T/C: 100 % of control
endpoint: median tumor weight (est.), dose: 40.5 mg/kg/injection, schedule: Q07DX002 (ip), vehicle: saline, higher = larger tumour
  T/C: 123 % of control
endpoint: median tumor weight (est.), dose: 81.0 mg/kg/injection, schedule: Q07DX002 (ip), vehicle: saline, higher = larger tumour
  T/C: 52 % of control
endpoint: median tumor weight (est.), dose: 81.0 mg/kg/injection, schedule: Q07DX002 (ip), vehicle: water, higher = larger tumour
  T/C: 56 % of control
endpoint: median tumor weight (est.), dose: 100.0 mg/kg/injection, schedule: Q07DX002 (ip), vehicle: water, higher = larger tumour
  T/C: 83 % of control
endpoint: median tumor weight (est.), dose: 162.0 mg/kg/injection, schedule: Q07DX002 (ip), vehicle: saline, higher = larger tumour
  T/C: 44 % of control
[1]
  T/C: 19 % of control
endpoint: median tumor weight (est.), dose: 200.0 mg/kg/injection, schedule: Q07DX002 (ip), vehicle: water, higher = larger tumour
  T/C: 53 % of control
endpoint: median tumor weight (est.), dose: 324.0 mg/kg/injection, schedule: Q07DX002 (ip), vehicle: saline, higher = larger tumour
  T/C: 14 % of control

## COC1/C=C\C=C(/C)C(=O)NC2=CC(=O)C=C(C2=O)C(OC)C(C)CC(OC)C(OC)C(C)/C=C(/C)C1OC(N)=O (configuration not stated)
endpoint: median tumor weight (est.), dose: 1.5 mg/kg/injection, schedule: Q07DX002 (ip), vehicle: Klucel (hydroxypropylcellulose) (HPC), higher = larger tumour
  T/C: 159 % of control
endpoint: median tumor weight (est.), dose: 6.0 mg/kg/injection, schedule: Q07DX002 (ip), vehicle: Klucel (hydroxypropylcellulose) (HPC), higher = larger tumour
  T/C: 117 % of control
endpoint: median tumor weight (est.), dose: 12.0 mg/kg/injection, schedule: Q07DX002 (ip), vehicle: Klucel (hydroxypropylcellulose) (HPC), higher = larger tumour
  T/C: 115 % of control
